Data as given in patent US7741488B2, “Tetrahydropyridothiophenes as antiproliferative agents for the treatment of cancer” (4SC AG, priority 2005, dated 2010).

Columns and labels:
[1] = tested on: RKO (RKOp27) human colon adenocarcinoma cells; experiment: Alamar Blue cell viability assay, anti-proliferative/cytotoxic activity on proliferating (uninduced) RKO p27 cells; type: cell-based; conditions: RKOp27, 72 h, proliferating cells without inducer Ponasterone A
Protocol: The anti-proliferative/cytotoxic activity of the compounds described herein, can be tested on subclones of RKO (RKOp27) human colon adenocarcinoma cells (Schmidt et al., Oncogene 19, 2423-2429; 2000) using the Alamar Blue cell viability assay (described in O'Brien et al. Eur J Biochem 267, 5421-5426, 2000). The compounds are dissolved as 20 mM solutions in dimethylsulfoxide (DMSO) and subsequently diluted in semi-logarithmic steps. DMSO dilutions are further diluted 1:100 into Dulbecco's modified Eagle's medium (DMEM) containing 10% fetal calf serum to a final concentration twice as much as the final concentration in the test. RKO subclones are seeded into 96 well flat bottom plates at a density of 4000 cells per well in a volume of 50 μl per well. 24 hours after seeding the 50 μl each of the compound dilutions in DMEM medium are added into each well of the 96 Well plate. Each compound dilution is tested as quadruplicates. Wells containing untreated control cells are filled with 50 μl DMEM medium containing 1% DMSO. The cells are then incubated with the substances for 72 hours at 37° C. in a humidified atmosphere containing 5% carbon dioxide. To determine the viability of the cells, 10 μl of an Alamar Blue solution (Biosource) are added and the fluorescence is measured at an extinction of 544 nm and an emission of 590 nm. For the calculation of the cell viability the emission value from untreated cells is set as 100% viability and the emission rates of treated cells are set in relation to the values of untreated cells. Viabilities are expressed as % values.
The corresponding IC50 values of the compounds for anti-proliferative/cytotoxic activity are determined from the concentration-effect curves.
Representative IC50 values for anti-proliferation/cytotoxicity determined in the mentioned assay follow from the following table A, in which the numbers of the compound correspond to the numbers of the examples.

[2] = tested on: RKOp27 colon adenocarcinoma cells arrested by expression of ectopic p27Kip1; experiment: Alamar Blue cell viability assay on RKO p27 cells arrested by Ponasterone A induced p27Kip1 (cell cycle specific mode of action); type: cell-based; conditions: Homo sapiens, 72 hours, cells arrested by p27Kip1 induced with 10 μM Ponasterone A
Protocol: To determine the cell cycle specific mode of action, subclones of RKO colon adenocarcinoma cells (RKOp27 or RKOp21 as described by Schmidt et al. in Oncogene 19, 2423-2429; 2000) are seeded into 96 well flat bottom plates at a density of 16000 cells per well in a volume of 50 μl per well in DMEM growth medium with 10% FCS containing 10 μM Ponasterone A. 24 hours after seeding the 50 μl each of the compound dilutions in DMEM medium are added into each well of the 96 Well plate. Each compound dilution is tested as quadruplicates. Wells containing untreated control cells are filled with 50 μl DMEM medium containing 1% DMSO. The cells are then incubated with the substances for 72 hours at 37° C. in a humidified atmosphere containing 5% carbon dioxide. To determine the viability of the cells, 10 μl of an Alamar Blue solution (Biosource) are added and the fluorescence was measured at an extinction of 544 nm and an emission of 590 nm. For the calculation of the cell viability the emission value from untreated cells is set as 100% viability and the emission rates of treated cells are set in relation to the values of untreated cells. Viabilities are expressed as % values. Viability is compared of proliferating cells grown in the absence of the inducer Ponasterone A, versus viability of cells arrested by the expression of ectopic p27Kip1 induced by Ponasterone A.

SMILES | IC50 [1] | IC50 [2]
CCOC(=O)N1CCc2c(sc(NC(=O)CC(C)c3ccccc3OC)c2C#N)C1 (racemic) [Example 49, 3-Cyano-2-[(RS)-3-(2-methoxy-phenyl)-butanoylamino]-4,7-dihydro-5H-thieno[2,3-c]pyridine-6-carboxylic acid ethyl ester] | ≤ 300 nM | > 100000 nM
CCOC(=O)N1CCc2c(sc(NC(=O)CCc3ccc(OC)cc3)c2C#N)C1 [Example 1, 3-Cyano-2-[3-(4-methoxy-phenyl)-propanoylamino]-4,7-dihydro-5H-thieno[2,3-c]pyridine-6-carboxylic acid ethyl ester] | ≤ 300 nM | > 100000 nM
CCOC(=O)N1CCc2c(sc(NC(=O)CCc3cccc(OC)c3)c2C#N)C1 [Example 2, 3-Cyano-2-[3-(3-methoxy-phenyl)-propanoylamino]-4,7-dihydro-5H-thieno[2,3-c]pyridine-6-carboxylic acid ethyl ester] | ≤ 300 nM | > 100000 nM
CCOC(=O)N1CCc2c(sc(NC(=O)CCc3ccccc3OC)c2C#N)C1 [Example 3, 3-Cyano-2-[3-(2-methoxy-phenyl)-propanoylamino]-4,7-dihydro-5H-thieno[2,3-c]pyridine-6-carboxylic acid ethyl ester] | 300 to 2000 nM | > 100000 nM
CCOC(=O)N1CCc2c(sc(NC(=O)CCc3cccc([N+](=O)[O-])c3)c2C#N)C1 [Example 4, 3-Cyano-2-[3-(3-nitro-phenyl)-propanoylamino]-4,7-dihydro-5H-thieno[2,3-c]pyridine-6-carboxylic acid ethyl ester] | ≤ 300 nM | > 100000 nM
CCOC(=O)N1CCc2c(sc(NC(=O)CCc3ccc(OCC)cc3)c2C#N)C1 [Example 5, 3-Cyano-2-[3-(4-ethoxy-phenyl)-propanoylamino]-4,7-dihydro-5H-thieno[2,3-c]pyridine-6-carboxylic acid ethyl ester] | ≤ 300 nM | > 100000 nM
CCOC(=O)N1CCc2c(sc(NC(=O)CCc3cccc(OC)c3OC)c2C#N)C1 [Example 6, 3-Cyano-2-[3-(2,3-dimethoxy-phenyl)-propanoylamino]-4,7-dihydro-5H-thieno[2,3-c]pyridine-6-carboxylic acid ethyl ester] | 300 to 2000 nM | > 100000 nM
CCOC(=O)N1CCc2c(sc(NC(=O)CCc3cc(OC)ccc3OC)c2C#N)C1 [Example 7, 3-Cyano-2-[3-(2,5-dimethoxy-phenyl)-propanoylamino]-4,7-dihydro-5H-thieno[2,3-c]pyridine-6-carboxylic acid ethyl ester] | 300 to 2000 nM | > 100000 nM
CCOC(=O)N1CCc2c(sc(NC(=O)CCc3cccc(OCC)c3)c2C#N)C1 [Example 8, 3-Cyano-2-[3-(3-ethoxy-phenyl)-propanoylamino]-4,7-dihydro-5H-thieno[2,3-c]pyridine-6-carboxylic acid ethyl ester] | 300 to 2000 nM | > 100000 nM
CCOc1ccccc1CCC(=O)Nc1sc2c(c1C#N)CCN(C(=O)OC(C)(C)C)C2 [Example 9, 3-Cyano-2-[3-(2-ethoxy-phenyl)-propanoylamino]-4,7-dihydro-5H-thieno[2,3-c]pyridine-6-carboxylic acid tert-butyl ester] | ≤ 300 nM | > 100000 nM
COc1ccccc1CCC(=O)Nc1sc2c(c1C#N)CCN(C(=O)OC(C)(C)C)C2 [Example 10, 3-Cyano-2-[3-(2-methoxy-phenyl)-propanoylamino]-4,7-dihydro-5H-thieno[2,3-c]pyridine-6-carboxylic acid tert-butyl ester] | ≤ 300 nM | > 100000 nM
COc1cccc(CCC(=O)Nc2sc3c(c2C#N)CCN(C(=O)OC(C)(C)C)C3)c1 [Example 11, 3-Cyano-2-[3-(3-methoxy-phenyl)-propanoylamino]-4,7-dihydro-5H-thieno[2,3-c]pyridine-6-carboxylic acid tert-butyl ester] | ≤ 300 nM | > 100000 nM
CCOC(=O)N1CCc2c(sc(NC(=O)CCc3ccccc3OC(F)F)c2C#N)C1 [Example 12, 3-Cyano-2-{3-[2-(1,1-difluoro-methoxy)-phenyl]-propanoylamino}-4,7-dihydro-5H-thieno[2,3-c]pyridine-6-carboxylic acid ethyl ester] | ≤ 300 nM | > 100000 nM
CCOC(=O)N1CCc2c(sc(NC(=O)CCc3cc(Br)cc(OC)c3OC)c2C#N)C1 [Example 14, 2-[3-(5-Bromo-2,3-dimethoxy-phenyl)-propanoylamino]-3-cyano-4,7-dihydro-5H-thieno[2,3-c]pyridine-6-carboxylic acid ethyl ester] | ≤ 300 nM | > 100000 nM
CCOC(=O)N1CCc2c(sc(NC(=O)CCc3cc(Br)ccc3OC)c2C#N)C1 [Example 15, 2-[3-(5-Bromo-2-methoxy-phenyl)-propanoylamino]-3-cyano-4,7-dihydro-5H-thieno[2,3-c]pyridine-6-carboxylic acid ethyl ester] | ≤ 300 nM | > 100000 nM
CCOC(=O)N1CCc2c(sc(NC(=O)CCc3cccc(OCC)c3OCC)c2C#N)C1 [Example 16, 3-Cyano-2-[3-(2,3-diethoxy-phenyl)-propanoylamino]-4,7-dihydro-5H-thieno[2,3-c]pyridine-6-carboxylic acid ethyl ester] | 300 to 2000 nM | > 100000 nM
CCOC(=O)N1CCc2c(sc(NC(=O)CCc3cc(C)ccc3OC)c2C#N)C1 [Example 17, 3-Cyano-2-[3-(2-methoxy-5-methyl-phenyl)-propanoylamino]-4,7-dihydro-5H-thieno[2,3-c]pyridine-6-carboxylic acid ethyl ester] | ≤ 300 nM | > 100000 nM
CCOC(=O)N1CCc2c(sc(NC(=O)CCc3c(OC)ccc4c3OC(F)(F)C(F)(F)O4)c2C#N)C1 [Example 18, 3-Cyano-2-[3-(2,2,3,3-tetrafluoro-6-methoxy-2,3-dihydro-benzo[1,4]dioxin-5-yl)-propanoylamino]-4,7-dihydro-5H-thieno[2,3-c]pyridine-6-carboxylic acid ethyl ester] | 300 to 2000 nM | > 100000 nM
CCOC(=O)N1CCc2c(sc(NC(=O)CCc3ccccc3OCC)c2C#N)C1 [Example 19, 3-Cyano-2-[3-(2-ethoxyphenyl)-propanoylamino]-4,7-dihydro-5H-thieno[2,3-c]-pyridine-6-carboxylic acid ethyl ester] | ≤ 300 nM | > 100000 nM
CCOc1ccccc1CCC(=O)Nc1sc2c(c1C#N)CCN(C(=O)OCC1COC(C)(C)O1)C2 (stereo not drawn) [Example 20, 3-Cyano-2-[3-(2-ethoxy-phenyl)-propanoylamino]-4,7-dihydro-5H-thieno[2,3-c]pyridine-6-carboxylic acid 2,2-dimethyl-[1,3]dioxolan-4-ylmethyl ester] | ≤ 300 nM | > 100000 nM
CCOc1ccccc1CCC(=O)Nc1sc2c(c1C#N)CCN(C(=O)OCCOCc1ccccc1)C2 [Example 21, 3-Cyano-2-[3-(2-ethoxy-phenyl)-propanoylamino]-4,7-dihydro-5H-thieno[2,3-c]pyridine-6-carboxylic acid 2-benzyloxy-ethyl ester] | 300 to 2000 nM | > 100000 nM
COc1ccccc1CCC(=O)Nc1sc2c(c1C#N)CCN(C(=O)OCCOCc1ccccc1)C2 [Example 24, 3-Cyano-2-[3-(2-methoxy-phenyl)-propanoylamino]-4,7-dihydro-5H-thieno[2,3-c]pyridine-6-carboxylic acid 2-benzyloxy-ethyl ester] | 300 to 2000 nM | > 100000 nM
COc1ccccc1CCC(=O)Nc1sc2c(c1C#N)CCN(C(=O)OCCc1ccccn1)C2 [Example 25, 3-Cyano-2-[3-(2-methoxy-phenyl)-propanoylamino]-4,7-dihydro-5H-thieno[2,3-c]pyridine-6-carboxylic acid 2-pyridin-2-yl-ethyl ester] | ≤ 300 nM | > 100000 nM
COc1ccccc1CCC(=O)Nc1sc2c(c1C#N)CCN(C(=O)OCc1ccccn1)C2 [Example 26, 3-Cyano-2-[3-(2-methoxy-phenyl)-propanoylamino]-4,7-dihydro-5H-thieno[2,3-c]pyridine-6-carboxylic acid pyridin-2-ylmethyl ester] | ≤ 300 nM | ≥ 40000 nM
